Reference: patent US12050224B2, “Compounds useful as near-infrared fluorescent probes selectively binding to tau aggregates and method of preparing the same” (KOREA INSTITUTE OF SCIENCE AND TECHNOLOGY, priority 2020, dated 2024)

How the values were obtained:
[1] = target: T1, tau aggregates (Tau-K18 protein) (Homo sapiens, UniProt P10636); test: In vitro binding assay (fluorescence labeling ability) to tau aggregates; conditions: for SIaβ: selectivity index = fluorescence intensity of probe bound to Tau aggregate / bound to Aβ aggregate / SItaumono: selectivity index, tau aggregate versus tau monomer / FItau: fold increase = fluorescence intensity of probe bound to tau aggregate / probe (free): compound 10 μM; for FItau: fold increase = fluorescence intensity of probe bound to tau aggregate / probe (free): PBS, 30 min incubation
T1 construct: aggregation of Tau-K18 protein (0.5 mg/ml in PBS) purified and isolated from E. coli; made in house; host or cells: E. coli
T1 sequence (P10636 561-685 limits assumed): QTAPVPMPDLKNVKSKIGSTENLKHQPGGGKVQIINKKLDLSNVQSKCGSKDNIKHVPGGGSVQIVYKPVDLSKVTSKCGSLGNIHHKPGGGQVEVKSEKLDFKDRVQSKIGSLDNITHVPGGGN
Experimental: (§1) Experimental Example 2-1: Tau and amyloid beta aggregation induction For amyloid aggregation induction, the synthesized Abeta40 (Amyloid Beta 40) peptide was dissolved in PBS at a concentration of 0.5 mg/ml to induce aggregation for 7 days at 37° C. and 200 rpm with shaking. To induce aggregation of tau proteins, aggregation of Tau-K18 protein (0.5 mg/ml in PBS) purified and isolated from E. coli with heparin (0.1 mg/ml) and DTT (100 μM) was induced at 37° C. and 200 rpm for 7 days under shaking conditions. […] At this time, thioflavin S (Th S), which is known to bind to beta-sheet structures such as tau and amyloid aggregates, was used as a control group (Ex: 430 nm, Em: 480-610 nm). Specifically, in order to determine the labeling ability of newly synthesized compounds to tau aggregate proteins, a 25 μl dilution of a 10 μM labeling substance in PBS and 25 id of a 0.125 mg/ml tau or amyloid pre-aggregate or aggregate diluted in PBS were each incubated for 30 minutes, and then a fluorescence spectrum reaction was measured using a spectrophotometer. Selectivity analysis for tau aggregates and amyloid beta aggregates of the novel synthetic compounds of the present invention was performed as described above, and the resulting in vitro fluorescence changes are summarized in Table 2 and FIG. 1 below.

[2] = target: T2, amyloid beta aggregates (Abeta40) (Homo sapiens, UniProt P05067); test: In vitro binding assay (fluorescence labeling ability) to amyloid beta aggregates; conditions: compound 10 μM, PBS, 30 min incubation
T2 construct: the synthesized Abeta40 (Amyloid Beta 40) peptide was dissolved in PBS; host or cells: synthetic peptide
T2 sequence (P05067 672-711 limits assumed): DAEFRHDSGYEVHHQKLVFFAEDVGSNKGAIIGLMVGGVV
Experimental: as §1

[3] = target: bovine serum albumin (BSA) (Bos taurus, UniProt P02769); test: Measurement of non-specific binding using BSA; conditions: for FIBSA: fold increase = fluorescence intensity of probe bound to BSA / probe (free): compound 10 μM, 0.25 mg/ml BSA, 30 min incubation
Chain of bovine serum albumin (BSA) (P02769 25-607): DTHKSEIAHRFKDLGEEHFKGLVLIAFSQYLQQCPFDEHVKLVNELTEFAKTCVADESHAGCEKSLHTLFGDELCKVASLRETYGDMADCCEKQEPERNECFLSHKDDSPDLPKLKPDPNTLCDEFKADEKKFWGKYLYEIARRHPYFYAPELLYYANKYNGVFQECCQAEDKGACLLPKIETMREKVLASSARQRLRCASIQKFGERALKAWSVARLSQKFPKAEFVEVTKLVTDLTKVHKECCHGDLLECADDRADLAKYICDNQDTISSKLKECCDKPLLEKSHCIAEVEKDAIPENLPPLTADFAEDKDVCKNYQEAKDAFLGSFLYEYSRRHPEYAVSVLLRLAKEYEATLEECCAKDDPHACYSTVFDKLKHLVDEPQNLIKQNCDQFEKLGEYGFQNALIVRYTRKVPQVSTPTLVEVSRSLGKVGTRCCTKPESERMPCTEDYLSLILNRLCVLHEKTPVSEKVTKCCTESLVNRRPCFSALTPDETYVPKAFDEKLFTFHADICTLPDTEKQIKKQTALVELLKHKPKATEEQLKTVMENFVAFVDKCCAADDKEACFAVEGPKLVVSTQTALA
Experimental: In order to exclude non-specific binding of the compound to serum, reactivity between the compound and bovine serum albumin (BSA) was further tested. 25 μl of a 10 μM compound was incubated along with 25 μl of 0.25 mg/ml BSA for 30 minutes, and then the fluorescence spectrum reaction was measured using a spectrophotometer. The BSA response was conducted to identify non-selective binding to other proteins in the blood when applied to patients as an imaging agent.

[4] = Measurement of absorbance and fluorescence of synthesized compound in ethanol; assay type: physicochemical; conditions: 10 μM in ethanol; for λem: Maximum emission wavelength / λex: Maximum excitation wavelength: average of three measurements; for Stokes shift: difference between excitation and emission
Experimental: In order to investigate the optical properties of the newly synthesized compound in the present invention, the absorbance was measured using a V-730 UV-visible spectrophotometer manufactured by JASCO, and fluorescence was measured using a FlexStation 3 multi-mode microplate reader manufactured by Molecular Devices. Absorbance and fluorescence were measured three times at a concentration of 10 μM in ethanol, and the average thereof is shown in Table 1 below. At this time, T807 (AV-1451) as a Tau positron-emission-tomography (PET) tracer and Thioflavin S, which are commercially available to detect tau production in vivo, were used as a control group.

Compound	SIaβ: selectivity index = fluorescence intensity of probe bound to Tau aggregate / bound to Aβ aggregate [1]	SItaumono: selectivity index, tau aggregate versus tau monomer [1]	FItau: fold increase = fluorescence intensity of probe bound to tau aggregate / probe (free) [1]	FIAβ: fold increase = fluorescence intensity of probe bound to Aβ aggregate / probe (free) [2]	FIBSA: fold increase = fluorescence intensity of probe bound to BSA / probe (free) [3]	λem: Maximum emission wavelength [4]	λex: Maximum excitation wavelength [4]	Stokes shift [4]	selectivity for tau aggregates over amyloid aggregates ([1]; in vitro screening as fluorescent probes)	reactivity to BSA ([3]; in words)
COc1ccc2nc(/C=C/C=C/c3ccc(F)cc3F)ccc2c1 [Compound 15h, 6-methoxy-2-((1E,3E)-4-(2.4-difluorophenyl)buta-1,3-dien-1-yl)quinolone]	1.5	2.8	2.35	1.56	0.70	415 nm	360 nm	55 nm		
CNc1ccc(/C=C/C=C/C(=O)c2ccc3cc(OC)ccc3n2)cc1 [Compound 16b, (2E,4E)-1-(6-methoxyquinolin-2-yl)-5-(4-(methylamino)phenyl)penta-2,4-dien-1-one]	1.0	2.1	9.22	9.45	56.71	714 nm	475 nm	239 nm		
COc1ccc2nc(C(=O)/C=C/C=C/c3ccc(N(C)C)cc3)ccc2c1 [Compound 16c, (2E,4E)-5-(4-(dimethylamino)phenyl)-1-(6-methoxyquinolin-2-yl)penta-2,4-dien-1-one]	1.2	1.7	1.71	1.43	1.29	678 nm	450 nm	228 nm		
COc1ccc2nc(C(=O)/C=C/C=C/c3ccc(N(C)C)nc3)ccc2c1 [Compound 16d, (2E,4E)-5-(6-(dimethylamino)pyridin-3-yl)-1-(6-methoxyquinolin-2-yl)penta-2,4-dien-1-one]	3.5	3.9	3.82	1.10	1.26	637 nm	425 nm	212 nm	3.5 times	
COc1ccc2nc(C(=O)/C=C/C=C/c3ccc(N(C)CCO)cc3)ccc2c1 [Compound 16e]	2.5	3.0	3.90	1.55	1.59	658 nm	436 nm	222 nm		
Thioflavin S [reference compound]	0.8	4.3	15.32	19.95	7.133	451 nm	347 nm	104 nm		high reactivity
